Like-named read-outs stand apart in the source and are kept apart here.
Target: T1, FAAH (Rattus norvegicus, UniProt P97612)
T1 construct: Preparation of Rat Brain Membranes Preparations (FAAH Enzyme Solution); from tissue; host or cells: rat cerebrum (brain membrane preparation)
T1 sequence (P97612 1-579): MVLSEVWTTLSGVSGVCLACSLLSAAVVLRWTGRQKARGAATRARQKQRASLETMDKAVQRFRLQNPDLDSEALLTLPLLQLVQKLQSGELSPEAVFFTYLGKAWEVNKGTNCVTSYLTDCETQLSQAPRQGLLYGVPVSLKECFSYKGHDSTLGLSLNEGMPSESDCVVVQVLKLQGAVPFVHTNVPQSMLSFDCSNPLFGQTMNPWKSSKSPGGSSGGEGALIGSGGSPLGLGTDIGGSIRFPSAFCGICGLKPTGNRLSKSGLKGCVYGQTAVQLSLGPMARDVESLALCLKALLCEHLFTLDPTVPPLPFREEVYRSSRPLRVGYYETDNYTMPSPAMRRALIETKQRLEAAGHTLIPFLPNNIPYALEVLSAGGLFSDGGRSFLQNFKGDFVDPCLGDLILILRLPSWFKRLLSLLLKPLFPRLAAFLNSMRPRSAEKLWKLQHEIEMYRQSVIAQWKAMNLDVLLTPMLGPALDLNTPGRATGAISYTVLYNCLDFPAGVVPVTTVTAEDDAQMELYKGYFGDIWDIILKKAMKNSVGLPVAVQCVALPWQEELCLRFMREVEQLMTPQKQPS
Assay: Determination of FAAH inhibitory activity in rat (rat brain membrane preparations, [3H]-anandamide hydrolysis)
Format: biochemical
Settings: rat brain membrane preparations; for IC50: read-out: FAAH Inhibition IC50
Summary of the method: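 Rat cerebrum membranes (100 μg/mL protein) preincubated 10 min at 37 °C with compound (1% DMSO) in pH 7.6 Tris buffer with 1.5% BSA. Substrate 2 nM [3H]-anandamide plus 2 μM anandamide added for 10 min at 37 °C. [3H]-ethanolamine in the aqueous phase after chloroform/methanol extraction was scintillation counted; IC50 over 0.1 nM–1 μM.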

[1] = 100 nM test substance, read-out: FAAH Inhibition, Inhibition Rate at 100 nM
[2] = at 100 nM, read-out: FAAH Inhibition Inhibition Rate at 100 nM

Row | SMILES | inhibition at 0.1 µM [1] [%] | IC50 (test substance 0.1 nM to 1 μM) [nM] | inhibition at 0.1 µM [2] [%] | IC50 [nM]
1 | CN(C)C(=O)n1c(=O)n(C)c2cnc(-c3cccc(OCc4ccccc4)c3)nc21 [compound 327] | 23 | 109 | – | –
2 | COCc1ncc2c(n1)n(C)c(=O)n2C(=O)N1CC(c2ccc(OCc3ccccc3)cc2)C1 [Example 456, 7-({3-[4-(Benzyloxy)phenyl]azetidin-1-yl}carbonyl)-2-(methoxymethyl)-9-methyl-7,9-dihydro-8H-purine-8-one] | 99 | 1 | – | –
3 | Cn1c(=O)n(C(=O)N2CCCC2)c2cnc(Cc3ccc(F)c(F)c3)nc21 [compound 269] | 96 | 42 | – | –
4 | Cn1c(=O)n(C(=O)N2CCCC2)c2nc(Cc3cc(F)ccc3F)ncc21 [Example 297, 2-(2,5-Difluorobenzyl)-7-methyl-9-(pyrrolidin-1-ylcarbonyl)-7,9-dihydro-8H-purine-8-one] | 89 | 47 | – | –
5 | COCc1ncc2c(n1)n(C1CC1)c(=O)n2C(=O)N1CC(c2cccc(F)c2)C1 [compound 665] | – | – | 99 | 7
6 | Cn1c(=O)n(C(=O)N2CCC2)c2cnc(-c3ccccc3)nc21 [Example 23, 7-(Azetidin-1-ylcarbonyl)-9-methyl-2-phenyl-7,9-dihydro-8H-purine-8-one] | 102 | 5 | – | –
7 | CCc1ccccc1CCc1ncc2c(n1)n(C(=O)N(C)C)c(=O)n2C [compound 515] | 100 | 10 | – | –
8 | COCc1ncc2c(n1)n(C)c(=O)n2C(=O)N1CC[C@H](Oc2cccc(C)c2)C1 [Example 485, 2-(Methoxymethyl)-9-methyl-7-{[(3S)-3-(3-methylphenoxy)pyrrolidin-1-yl]carbonyl}-7,9-dihydro-8H-purine-8-one] | 112 | 3 | – | –
9 | Cn1c(=O)n(C(=O)N2CCC2)c2nc(CCc3ccccc3F)ncc21 [Example 583, 9-(Azetidin-1-ylcarbonyl)-2-[2-(2-fluorophenyl)ethyl]-7-methyl-7,9-dihydro-8H-purine-8-one] | 87 | 94 | – | –
10 | CN(C)C(=O)n1c(=O)n(C)c2cnc(CCc3ccc(F)cc3F)nc21 [Example 506, 2-[2-(2,4-Difluorophenyl)ethyl]-N,N,7-trimethyl-8-oxo-7,8-dihydro-9H-purine-9-carboxamide] | 94 | 28 | – | –
11 | COc1cccc(-c2ncc3c(n2)n(C)c(=O)n3C(=O)N(C)Cc2ccc(C(F)(F)F)cc2)c1 [Example 81, 2-(3-Methoxyphenyl)-N,9-dimethyl-8-oxo-N-[4-(trifluoromethyl)benzyl]-8,9-dihydro-7H-purine-7-carboxamide] | 94 | 11 | – | –
12 | COc1cccc(-c2ncc3c(n2)n(C)c(=O)n3C(=O)N(C)CCC2CCCCC2)c1 [Example 109, N-(2-Cyclohexylethyl)-2-(3-methoxyphenyl)-N,9-dimethyl-8-oxo-8,9-dihydro-7H-purine-7-carboxamide] | 103 | 2 | – | –
13 | CN(C)C(=O)n1c(=O)n(C)c2cnc(CCc3ccc(OCC(F)F)cc3)nc21 [Example 538, 2-{2-[4-(2,2-Difluoroethoxy)phenyl]ethyl}-N,N,7-trimethyl-8-oxo-7,8-dihydro-9H-purine-9-carboxamide] | 51 | – | – | –
14 | CN(C)C(=O)n1c(=O)n(C)c2cnc(CCOc3ccc(Cl)cc3)nc21 [compound 640] | – | – | 95 | 12
15 | COCc1ncc2c(n1)n(C)c(=O)n2C(=O)N1CC(c2ccc(F)cc2)C1 [Example 439, 7-{[3-(4-Fluorophenyl)azetidin-1-yl]carbonyl}-2-(methoxymethyl)-9-methyl-7,9-dihydro-8H-purine-8-one] | 104 | 5 | – | –
16 | CCN(C)C(=O)n1c(=O)n(C)c2cnc(-c3cccc(C)c3)nc21 [compound 340] | 71 | 50 | – | –
17 | Cc1ccc(CCc2ncc3c(n2)n(C(=O)N2CCC2)c(=O)n3C)cc1 [compound 559] | 97 | 10 | – | –
18 | CCCn1c(=O)n(C(=O)N2CC(c3ccccc3F)C2)c2cnc(COC)nc21 [Example 661, 7-{[3-(2-Fluorophenyl)azetidin-1-yl]carbonyl}-2-(methoxymethyl)-9-propyl-7,9-dihydro-8H-purine-8-one] | – | – | 82 | 36
19 | CCCCc1ncc2c(n1)n(C)c(=O)n2C(=O)N(C)CCc1ccc(Cl)cc1 [Example 155, 2-Butyl-N-[2-(4-chlorophenyl)ethyl]-N,9-dimethyl-8-oxo-8,9-dihydro-7H-purine-7-carboxamide] | 102 | 4 | – | –

Results, then the molecule that gave them:

Row | inhibition at 0.1 µM [1] [%] | IC50 (test substance 0.1 nM to 1 μM) [nM] | inhibition at 0.1 µM [2] [%] | IC50 [nM] | SMILES
20 | – | – | 97 | 16 | CCn1c(=O)n(C(=O)N(C)C)c2nc(CCc3ccccc3F)ncc21 [Example 643]
21 | 67 | 75 | – | – | COC[C@H]1CCCN1C(=O)n1c(=O)n(C)c2nc(-c3ccccc3)ncc21 [Example 29]
22 | – | – | 98 | 20 | CCn1c(=O)n(C(=O)N(C)C)c2nc(CCc3ccc(F)cc3)ncc21 [Example 645, 7-Ethyl-2-[2-(4-fluorophenyl)ethyl]-N,N-dimethyl-8-oxo-7,8-dihydro-9H-purine-9-carboxamide]
23 | 97 | 40 | – | – | CCOc1ccc(-c2ncc3c(n2)n(C(=O)N2CCCC2)c(=O)n3C)cc1 [Example 233, 2-(4-Ethoxyphenyl)-7-methyl-9-(pyrrolidin-1-ylcarbonyl)-7,9-dihydro-8H-purine-8-one]
24 | 57 | 84 | – | – | Cn1c(=O)n(C(=O)N2CCCC2)c2cnc(CCCc3ccccc3)nc21 [Example 21]
25 | 82 | 46 | – | – | CN(C)C(=O)n1c(=O)n(C)c2cnc(-c3ccc(OC(F)F)cc3)nc21 [Example 337, 2-[4-(Difluoromethoxy)phenyl]-N,N,7-trimethyl-8-oxo-7,8-dihydro-9H-purine-9-carboxamide]
26 | 103 | 10 | – | – | Cn1c(=O)n(C(=O)N2CCC2)c2cnc(COc3ccc(F)cc3)nc21 [Example 402, 7-(azetidin-1-ylcarbonyl)-2-[(4-fluorophenoxy)methyl]-9-methyl-7,9-dihydro-8H-purine-8-one]
27 | 92 | 45 | – | – | Cn1c(=O)n(C(=O)N2CCCC2)c2nc(Cc3ccc(F)cc3F)ncc21 [Example 296, 2-(2,4-Difluorobenzyl)-7-methyl-9-(pyrrolidin-1-ylcarbonyl)-7,9-dihydro-8H-purine-8-one]
28 | 98 | 4 | – | – | COc1ccc(-c2ncc3c(n2)n(C)c(=O)n3C(=O)N2CCCC2)cn1 [Example 206, 2-(6-Methoxypyridin-3-yl)-9-methyl-7-(pyrrolidin-1-ylcarbonyl)-7,9-dihydro-8H-purine-8-one]
29 | 27 | > 100 | – | – | CCN(C)C(=O)n1c(=O)n(C)c2nc(C)ncc21 [Example 163]
30 | 83 | 23 | – | – | CCN(C)C(=O)n1c(=O)n(C)c2cnc(CCc3cccc(OC(F)(F)F)c3)nc21 [compound 558]
31 | 100 | 5 | – | – | Cn1c(=O)n(C(=O)N2CCCC2)c2cnc(Cc3ccccc3)nc21 [Example 253, 2-benzyl-9-methyl-7-(pyrrolidin-1-ylcarbonyl)-7,9-dihydro-8H-purine-8-one]
32 | 102 | 0.6 | – | – | Cn1c(=O)n(C(=O)N2CCC(CCc3ccc(Cl)cc3)CC2)c2cnc(-c3ccncc3)nc21 [Example 152, 7-({4-[2-(4-Chlorophenyl)ethyl]piperidin-1-yl}carbonyl)-9-methyl-2-(pyridin-4-yl)-7,9-dihydro-8H-purine-8-one]
33 | 86 | 9 | – | – | COCc1ncc2c(n1)n(C)c(=O)n2C(=O)N1CC[C@H](Oc2ccc(C)cc2)C1 [Example 484, 2-(Methoxymethyl)-9-methyl-7-{[(3S)-3-(4-methylphenoxy)pyrrolidin-1-yl]carbonyl}-7,9-dihydro-8H-purine-8-one]
34 | 101 | 23 | – | – | COc1cccc(-c2ncc3c(n2)n(C)c(=O)n3C(=O)N2CCCC2)c1F [Example 196, 2-(2-Fluoro-3-methoxyphenyl)-9-methyl-7-(pyrrolidin-1-ylcarbonyl)-7,9-dihydro-8H-purine-8-one]
35 | 97 | 2 | – | – | COCc1ncc2c(n1)n(C)c(=O)n2C(=O)N1CC[C@H](Oc2cccc(Cl)c2)C1 [Example 490, 7-{[(3S)-3-(3-Chlorophenoxy)pyrrolidin-1-yl]carbonyl}-2-(methoxymethyl)-9-methyl-7,9-dihydro-8H-purine-8-one]
36 | 100 | 10 | – | – | CN(C)C(=O)n1c(=O)n(C)c2cnc(CCc3ccccc3C(F)(F)F)nc21 [compound 542]

Reference: patent US8735406B2, “8-oxodihydropurine derivative” (Dainippon Sumitomo Pharma Co., Ltd., priority 2009, dated 2014)
